Reference: publication PMC5078040 (Oncotarget, 2016)

Key:
HEL = assay: Anti-proliferative assay; type: cell-based; conditions: Homo sapiens, AML-M6, 72 hours, CellTiter-Glo
Method: (§1) Cells were grown in 96-well culture plates (3000-4000/well). […] Cell proliferation was determined after treatment with compounds for 72 hours. Cell viability was measured using the CellTiter–Glo Assay Kit (Promega, USA), according to the manufacturer's instructions, and luminescence was measured in a multi-label reader (Envision, PerkinElmer, USA). Data were normalized to control groups (DMSO) and represented by the mean of three independent measurements with standard error <20%. GI50 values were calculated using Prism 5.0 (GraphPad Software, San Diego, CA).

SKM-1 = assay: Anti-proliferative assay; type: cell-based; conditions: Homo sapiens; SKM-1, AML-M5; 72 hours, CellTiter-Glo
Method: as §1

Ramos(new) = assay: Anti-proliferative assay; type: cell-based; conditions: Homo sapiens, Burrkit lymphoma, 72 hours, CellTiter-Glo
Method: as §1

Hs 505T = assay: Anti-proliferative assay; type: cell-based; conditions: Homo sapiens, CLL, 72 hours, CellTiter-Glo
Method: as §1

MV4-11 = assay: Anti-proliferative assay; type: cell-based; conditions: Homo sapiens; MV4-11, AML; 72 hours, CellTiter-Glo
Method: as §1

HL-60 = assay: Anti-proliferative assay; type: cell-based; conditions: Homo sapiens; HL-60, AML-M2; 72 hours, CellTiter-Glo
Method: as §1

NALM-6 = assay: Anti-proliferative assay; type: cell-based; conditions: Homo sapiens, 72 hours, CellTiter-Glo
Method: as §1

RPMI8226 = assay: Anti-proliferative assay; type: cell-based; conditions: Homo sapiens, RPMI-8226; RPMI8226, MM; 72 hours, CellTiter-Glo
Method: as §1

OCI-AML-3 = assay: Anti-proliferative assay; type: cell-based; conditions: Homo sapiens; OCI-AML-3, AML-M4; 72 hours, CellTiter-Glo
Method: as §1

MEC-2 = assay: Anti-proliferative assay; type: cell-based; conditions: Homo sapiens, MEC2; MEC-2, CLL; 72 hours, CellTiter-Glo
Method: as §1

Namalwa = assay: Anti-proliferative assay; type: cell-based; conditions: Homo sapiens, Burrkit lymphoma, 72 hours, CellTiter-Glo
Method: as §1

NOMO-1 = assay: Anti-proliferative assay; type: cell-based; conditions: Homo sapiens; NOMO-1, AML-M5; 72 hours, CellTiter-Glo
Method: as §1

AMO-1 = assay: Anti-proliferative assay; type: cell-based; conditions: Homo sapiens, AMO1; AMO-1, MM; 72 hours, CellTiter-Glo
Method: as §1

MOLM-13 = assay: Anti-proliferative assay; type: cell-based; conditions: Homo sapiens; MOLM-13, AML-M5; 72 hours, CellTiter-Glo
Method: as §1

MOLM-14 = assay: Anti-proliferative assay; type: cell-based; conditions: Homo sapiens; MOLM-14, AML-M5; 72 hours, CellTiter-Glo
Method: as §1

CMK = assay: Anti-proliferative assay; type: cell-based; conditions: Homo sapiens, AML, 72 hours, CellTiter-Glo
Method: as §1

U937 = assay: Anti-proliferative assay; type: cell-based; conditions: Homo sapiens, U-937; U937, AML; 72 hours, CellTiter-Glo
Method: as §1

HT = assay: Anti-proliferative assay; type: cell-based; conditions: Homo sapiens, B-cell lymphoma, 72 hours, CellTiter-Glo
Method: as §1

OCI-AML-2 = assay: Anti-proliferative assay; type: cell-based; conditions: Homo sapiens, OCI-AML2; OCI-AML-2, AML-M4; 72 hours, CellTiter-Glo
Method: as §1

NB4 = assay: Anti-proliferative assay; type: cell-based; conditions: Homo sapiens; NB4, AML-3; 72 hours, CellTiter-Glo
Method: as §1

PF382 = assay: Anti-proliferative assay; type: cell-based; conditions: Homo sapiens, PF-382; PF382, ALL; 72 hours, CellTiter-Glo
Method: as §1

MEC-1 = assay: Anti-proliferative assay; type: cell-based; conditions: Homo sapiens, MEC1; MEC-1, CLL; 72 hours, CellTiter-Glo
Method: as §1

JVM-2 = assay: Anti-proliferative assay; type: cell-based; conditions: Homo sapiens; JVM-2, Mantle cell lymphoma; 72 hours, CellTiter-Glo
Method: as §1

AML patient primary cell = assay: Anti-proliferative efficacy against patient primary cells; type: cell-based; conditions: Homo sapiens
Method: Mononuclear cells were isolated from AML patients. Mononuclear cells were isolated by density gradient centrifugation through Ficoll-Plaque Plus (Amersham Pharmacia Biotech AB, Uppsala, Sweden) at 2000 rpm for 30 minutes, followed by two washes in 1X PBS. Freeze-thawed cells were then cultured in liquid culture (DMEM, supplemented with 20% FBS). All blood and bone marrow samples from AML patients were obtained through written consent under approval of the Dana Farber Cancer Institute Institutional Review Board. The ethics committees approved the consent procedure.
as §1

PI3Kγ = PI3Kγ (Mus musculus, UniProt Q9JHG7); assay: cell-based
PI3Kα = molecular target: T1, PI3Kα (Mus musculus, UniProt P42337); assay: PI3Ks isoform in cell EC50 assay (AKT phosphorylation, Western Blotting); type: cell-based; conditions: NIH-3T3, 20ng/ml PDGF-BB, read-out: cellular EC50 PI3K Alpha
T1 construct: endogenous in cells; host or cells: NIH-3T3

PI3Kβ = molecular target: T2, PI3Kβ (Mus musculus, UniProt Q8BTI9); assay: as above; type: cell-based; conditions: NIH-3T3, 5μM LPA, read-out: cellular EC50 PI3K Beta
T2 construct: endogenous in cells; host or cells: NIH-3T3

CLL patient primary cell = assay: Anti-proliferative efficacy against patient primary cells; type: cell-based; conditions: Homo sapiens
Method: Peripheral blood mononuclear cells (PBMCs) from individuals with CLL were isolated by density centrifugation through Ficoll and frozen for each subject. Those subjects with low white counts whose CLL cell purity was expected to be < 85% underwent B cell isolation using RosetteSep. The protocol was approved by the Dana-Farber Harvard Cancer Center Institutional Review Board and all subjects signed written informed consent prior to participation.
as §1

T2 sequence (Q8BTI9 whole entry): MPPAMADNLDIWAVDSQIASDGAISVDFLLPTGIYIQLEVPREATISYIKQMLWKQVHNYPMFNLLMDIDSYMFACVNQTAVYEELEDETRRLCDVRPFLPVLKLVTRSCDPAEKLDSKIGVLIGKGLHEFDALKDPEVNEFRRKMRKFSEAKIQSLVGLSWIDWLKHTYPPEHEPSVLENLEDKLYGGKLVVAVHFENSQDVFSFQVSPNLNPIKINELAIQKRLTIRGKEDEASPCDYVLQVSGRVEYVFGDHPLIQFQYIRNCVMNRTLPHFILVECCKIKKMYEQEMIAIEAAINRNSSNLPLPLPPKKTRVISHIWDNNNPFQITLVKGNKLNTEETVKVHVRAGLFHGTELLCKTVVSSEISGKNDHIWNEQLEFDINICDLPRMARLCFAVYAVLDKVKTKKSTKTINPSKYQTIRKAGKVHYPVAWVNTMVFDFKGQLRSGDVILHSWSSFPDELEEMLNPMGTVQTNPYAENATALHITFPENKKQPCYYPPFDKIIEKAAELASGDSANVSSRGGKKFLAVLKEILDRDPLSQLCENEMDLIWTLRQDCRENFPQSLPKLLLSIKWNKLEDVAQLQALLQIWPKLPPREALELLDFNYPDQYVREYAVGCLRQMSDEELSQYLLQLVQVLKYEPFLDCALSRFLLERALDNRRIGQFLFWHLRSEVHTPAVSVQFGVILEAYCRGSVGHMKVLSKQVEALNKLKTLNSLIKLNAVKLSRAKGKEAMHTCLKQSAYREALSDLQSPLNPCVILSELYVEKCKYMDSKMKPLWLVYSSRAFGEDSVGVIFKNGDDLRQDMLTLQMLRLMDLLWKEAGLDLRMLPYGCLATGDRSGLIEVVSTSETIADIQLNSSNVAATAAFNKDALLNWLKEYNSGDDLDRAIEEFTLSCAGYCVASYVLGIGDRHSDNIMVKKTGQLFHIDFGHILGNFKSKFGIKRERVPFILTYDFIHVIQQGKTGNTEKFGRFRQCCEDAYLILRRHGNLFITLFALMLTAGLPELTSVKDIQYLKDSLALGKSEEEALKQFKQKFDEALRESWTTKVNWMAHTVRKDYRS
T2 sequence (P26450 whole entry partner): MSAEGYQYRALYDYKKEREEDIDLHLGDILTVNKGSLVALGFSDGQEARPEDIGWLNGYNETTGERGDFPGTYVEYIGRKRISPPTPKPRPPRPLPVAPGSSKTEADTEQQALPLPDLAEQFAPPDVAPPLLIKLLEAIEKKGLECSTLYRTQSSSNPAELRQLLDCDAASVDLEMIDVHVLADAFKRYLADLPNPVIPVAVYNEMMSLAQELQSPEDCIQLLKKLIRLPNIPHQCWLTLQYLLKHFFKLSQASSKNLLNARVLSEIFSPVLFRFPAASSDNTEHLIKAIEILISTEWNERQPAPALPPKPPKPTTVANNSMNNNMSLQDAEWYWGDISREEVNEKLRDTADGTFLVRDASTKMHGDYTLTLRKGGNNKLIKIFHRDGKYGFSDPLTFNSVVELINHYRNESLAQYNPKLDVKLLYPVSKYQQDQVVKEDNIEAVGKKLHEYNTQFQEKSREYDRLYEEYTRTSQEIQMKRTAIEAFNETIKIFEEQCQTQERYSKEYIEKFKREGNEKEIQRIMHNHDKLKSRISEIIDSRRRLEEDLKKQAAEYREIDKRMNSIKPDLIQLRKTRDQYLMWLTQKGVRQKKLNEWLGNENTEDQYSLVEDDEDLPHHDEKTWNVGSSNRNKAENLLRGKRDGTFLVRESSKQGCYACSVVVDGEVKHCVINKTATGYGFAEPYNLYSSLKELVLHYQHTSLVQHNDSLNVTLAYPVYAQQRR
T1 sequence (P42337 whole entry, canonical isoform): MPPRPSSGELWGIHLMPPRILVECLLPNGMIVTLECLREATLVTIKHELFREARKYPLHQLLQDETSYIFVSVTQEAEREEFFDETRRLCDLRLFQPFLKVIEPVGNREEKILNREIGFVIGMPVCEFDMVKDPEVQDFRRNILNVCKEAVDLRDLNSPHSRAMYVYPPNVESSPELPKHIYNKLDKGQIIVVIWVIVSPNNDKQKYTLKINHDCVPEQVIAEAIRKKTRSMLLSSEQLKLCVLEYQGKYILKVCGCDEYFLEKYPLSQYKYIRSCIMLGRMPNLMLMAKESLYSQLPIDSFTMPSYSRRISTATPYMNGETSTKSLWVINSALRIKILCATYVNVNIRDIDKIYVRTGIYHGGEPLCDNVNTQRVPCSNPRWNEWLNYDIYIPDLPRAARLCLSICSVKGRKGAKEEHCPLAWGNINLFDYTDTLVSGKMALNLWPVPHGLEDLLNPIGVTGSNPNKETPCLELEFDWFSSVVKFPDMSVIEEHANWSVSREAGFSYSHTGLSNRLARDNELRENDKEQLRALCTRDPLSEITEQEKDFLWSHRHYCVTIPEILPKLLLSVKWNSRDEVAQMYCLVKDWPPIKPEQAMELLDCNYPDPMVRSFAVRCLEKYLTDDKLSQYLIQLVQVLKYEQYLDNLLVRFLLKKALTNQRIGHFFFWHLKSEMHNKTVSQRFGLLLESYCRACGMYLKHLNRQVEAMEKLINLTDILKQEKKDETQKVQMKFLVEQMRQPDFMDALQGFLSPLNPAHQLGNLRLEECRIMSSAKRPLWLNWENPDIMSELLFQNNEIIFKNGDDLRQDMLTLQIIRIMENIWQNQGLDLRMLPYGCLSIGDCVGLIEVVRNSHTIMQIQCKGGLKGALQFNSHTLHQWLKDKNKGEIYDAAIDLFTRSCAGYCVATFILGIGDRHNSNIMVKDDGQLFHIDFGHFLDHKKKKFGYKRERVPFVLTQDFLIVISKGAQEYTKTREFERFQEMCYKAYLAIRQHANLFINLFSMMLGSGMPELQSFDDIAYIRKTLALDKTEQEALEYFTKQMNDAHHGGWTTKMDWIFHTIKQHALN
T1 sequence (P26450 whole entry partner, canonical isoform): as the sequence (P26450 whole entry partner) above
PI3Kγ, sequence (Q9JHG7 whole entry, canonical isoform): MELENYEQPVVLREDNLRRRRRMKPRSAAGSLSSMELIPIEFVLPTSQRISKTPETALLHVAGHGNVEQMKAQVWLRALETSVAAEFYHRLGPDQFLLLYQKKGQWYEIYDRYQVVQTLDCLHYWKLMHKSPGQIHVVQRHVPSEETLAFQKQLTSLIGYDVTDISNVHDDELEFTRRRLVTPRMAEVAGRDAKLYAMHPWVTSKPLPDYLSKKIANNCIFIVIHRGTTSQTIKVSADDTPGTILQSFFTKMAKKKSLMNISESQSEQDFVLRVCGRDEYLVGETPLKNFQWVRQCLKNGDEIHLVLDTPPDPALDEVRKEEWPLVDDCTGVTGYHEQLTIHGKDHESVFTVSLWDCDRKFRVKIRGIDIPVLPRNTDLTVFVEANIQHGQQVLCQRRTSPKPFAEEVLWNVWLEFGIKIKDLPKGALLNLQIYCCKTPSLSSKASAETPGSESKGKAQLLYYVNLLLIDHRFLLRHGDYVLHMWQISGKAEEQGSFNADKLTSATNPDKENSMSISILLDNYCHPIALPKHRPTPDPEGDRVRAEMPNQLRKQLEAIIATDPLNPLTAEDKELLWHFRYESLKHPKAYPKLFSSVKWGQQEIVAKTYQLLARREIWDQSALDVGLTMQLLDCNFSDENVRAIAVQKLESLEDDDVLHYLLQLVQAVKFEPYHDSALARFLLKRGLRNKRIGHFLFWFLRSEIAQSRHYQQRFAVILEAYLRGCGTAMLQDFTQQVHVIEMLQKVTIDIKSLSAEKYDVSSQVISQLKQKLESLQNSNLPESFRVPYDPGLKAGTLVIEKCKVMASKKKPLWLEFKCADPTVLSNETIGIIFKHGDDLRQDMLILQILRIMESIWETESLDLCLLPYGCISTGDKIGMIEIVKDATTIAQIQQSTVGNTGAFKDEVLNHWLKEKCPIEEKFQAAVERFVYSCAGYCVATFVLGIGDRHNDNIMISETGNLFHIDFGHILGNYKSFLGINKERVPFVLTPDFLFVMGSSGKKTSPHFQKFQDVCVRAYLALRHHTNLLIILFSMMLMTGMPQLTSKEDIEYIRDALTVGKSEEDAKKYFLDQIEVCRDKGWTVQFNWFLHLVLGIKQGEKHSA

Structure (SMILES)	GI50 (HEL) [nM]	GI50 (SKM-1) [nM]	GI50 (Ramos(new)) [nM]	GI50 (MV4-11) [nM]	GI50 (HL-60) [nM]	GI50 (NALM-6) [nM]	GI50 (RPMI8226) [nM]	GI50 (OCI-AML-3) [nM]	GI50 (Namalwa) [nM]	GI50 (NOMO-1) [nM]	GI50 (AMO-1) [nM]	GI50 (MOLM-13) [nM]	GI50 (MOLM-14) [nM]	GI50 (CMK) [nM]	GI50 (U937) [nM]	GI50 (HT) [nM]	GI50 (OCI-AML-2) [nM]	GI50 (NB4) [nM]	GI50 (PF382) [nM]	GI50 (JVM-2) [nM]	also measured
CC[C@H](Nc1ncnc2[nH]cnc12)c1nc2cccc(F)c2c(=O)n1-c1ccccc1 [CAL-101, Idelalisib]	> 10000	> 10000	> 10000	> 10000	> 10000	> 10000	> 10000	2400	> 10000	> 10000	> 10000	> 10000	7800	> 10000	> 10000	> 10000	> 10000	> 10000	> 10000	> 10000	GI50 (Hs 505T): > 10000 nM; GI50 (MEC-2): > 10000 nM; GI50 (MEC-1): > 10000 nM; GI50 (AML patient primary cell; AML1, patient primary cell AML1): > 10000 nM; GI50 (AML patient primary cell; AML3, patient primary cell AML3): > 10000 nM; GI50 (AML patient primary cell; patient primary cell AML2): 1010 nM; GI50 (AML patient primary cell; patient primary cell AML4): > 10000 nM; GI50 (AML patient primary cell; patient primary cell AML5): > 10000 nM; GI50 (AML patient primary cell; patient primary cell AML6): > 10000 nM; EC50 (PI3Kγ): 2320 nM; EC50 (PI3Kα): > 3000 nM; EC50 (PI3Kβ): > 3000 nM; GI50 (CLL patient primary cell; patient primary cell CLL16): > 10000 nM; GI50 (CLL patient primary cell; patient primary cell CLL18): > 10000 nM; GI50 (CLL patient primary cell; patient primary cell CLL19): > 10000 nM
CS(=O)(=O)N1CCN(Cc2cc3nc(-c4cccc5[nH]ncc45)nc(N4CCOCC4)c3s2)CC1 [GDC-0941]	> 10000	540	2100	1400	160	390	2600	730	390	1000	300	150	300	300	1600	500	2000	1000	460	> 10000	EC50 (PI3Kα): 624 nM; EC50 (PI3Kβ): 176 nM
